Laboratory results taken from patent EP2123668A1, “Immunogenic polypeptides that mimic the surface polysaccharide O-antigen from serotype 2A shigella flexneri, method for obtaining the same, and their use in vaccine and diagnostic compositions” (INSTITUT PASTEUR, priority 2008, dated 2009).
Read-outs that look alike come from different tables or passages of the source. No end group written: not given here.

Assays:
F22-4 antibody = experiment: ITC microcalorimetry; format: binding, murine
Description: ITC experiments with F22-4 antibody and several chemically synthesized oligosaccharidic fragments of O-Ag 2a lead to two major results.

mAb F22-4 [1] = experiment: StopFlow antibody-ligand binding; design: species or system murine
LPS/F22-4 [2] = experiment: ELISA inhibition of LPS/F22-4 binding; design: species or system murine
mAb F22-4 [3] = experiment: Biacore antibody-ligand binding (equilibrium and kinetic analysis); design: species or system murine
LPS/F22-4 [4] = conditions: cited from earlier work
[5] = test system: S. flexneri 2a mAb (F22-4); experiment: Reactivity of selected or conjugated peptides with the F22-4 mAb; format: binding, murine; conditions: conjugated peptides, coupled to BSA
Description: Two protective mAbs directed against S. flexneri LPS 2a (IgG C1-7 and IgG F22-4) were used for mimotope selection using the two libraries displaying 12 amino acid-long inserts.
The peptides have been synthesized with a flanking region AEGEF at the N-terminal and DPAKC at the C-terminal. The peptides have been conjugated to maleimide-activated bovine serum albumin (BSA) and to maleimide-activated keyhole limpet hemocyanine (KLH) using a kit from Pierce. The seven different sequences have been selected by Partner 4, all showing good reactivity with the S. flexneri 2a mAb (F22-4) and being inhibited by the LPS. Five of the sequences, B24, B1, C8, C26 and C17 (shown below in bold) have been chosen for further analyzes. The reason that the peptides C22 and C3 have been omitted are that they contain cysteine and the conjugation procedure that we exploited used cysteine for coupling to the protein. The conjugated peptides have been tested for reactivity with the F22-4 mAb and were positive when coupled to BSA. […] Sequences of peptides selected using the S. flexneri 2a specific mAb F22-4

mAb F22-4 [6] = experiment: Biacore antibody-ligand binding (equilibrium and kinetic analysis); design: species or system murine; conditions: equilibrium analysis; read-out: Biacore Eq KD
LPS/F22-4 [7] = experiment: ELISA inhibition of LPS/F22-4 binding; design: species or system murine; remark: listed apart in the source
[8] = PBS buffer at 25°C, read-out: KD
[9] = equilibrium analysis, read-out: Biacore Eq KD
[10] = kinetic analysis, read-out: Biacore Cin KD
[11] = Table 6 recapitulation, read-out: microcal KD

| Molecule | ΔH (Kcal/mol) (F22-4 antibody; PBS buffer at 25°C) | ΔS (cal/mol/K) (F22-4 antibody; PBS buffer at 25°C) | Kd (F22-4 antibody; [8]) | Kd (mAb F22-4 [1]) | IC50 (LPS/F22-4 [2]) | Kd (mAb F22-4 [3]; [9]) | Biacore Cin koff(s-1) (mAb F22-4 [3]; kinetic analysis) | Kd (mAb F22-4 [3]; [10]) | StopFlow koff(s-1) (mAb F22-4 [1]) | StopFlow kon(M-1.s-1) (mAb F22-4 [1]) | Kd (F22-4 antibody; [11]) | effectiveness in inhibition compared with ECD (LPS/F22-4 [4]; LPS/F22-4 inhibition studies (12), (13)) | reactivity with the F22-4 mAb [5] | IC50 compared with B(E)CDA'B'(E')C' (LPS/F22-4 [4]; reference (12)) | Kd (mAb F22-4 [6]) | IC50 (LPS/F22-4 [7]) |
| --- | --- | --- | --- | --- | --- | --- | --- | --- | --- | --- | --- | --- | --- | --- | --- | --- |
| COC1OC(C)C(O)C(O)C1OC1OC(CO)C(O)C(OC2OC(C)C(OC3OC(CO)C(O)C(O)C3O)C(O)C2O)C1NC(C)=O (stereo not drawn) [ECDA] | -11,3±0,1 Kcal/mol | -19.2 cal/mol/K | 89 ± 1 µM |  |  |  |  |  |  |  |  |  |  |  |  |  |
| CO[C@@H]1O[C@@H](C)[C@H](O[C@H]2O[C@H](CO)[C@@H](O)[C@H](O)[C@H]2O)[C@@H](O[C@@H]2O[C@@H](C)[C@H](O)[C@@H](O)[C@H]2O[C@@H]2O[C@@H](C)[C@H](O)[C@@H](O)[C@H]2O[C@@H]2O[C@H](CO)[C@@H](O)[C@H](O)[C@H]2NC(C)=O)[C@H]1O [DAB(E)C] |  |  |  | > 1100 µM | > 1000 µM |  |  |  |  |  |  |  |  |  |  |  |
| COC1OC(C)C(OC2OC(CO)C(O)C(O)C2O)C(OC2OC(C)C(O)C(O)C2OC2OC(C)C(O)C(O)C2OC2OC(CO)C(O)C(OC3OC(C)C(OC4OC(CO)C(O)C(O)C4O)C(OC4OC(C)C(O)C(O)C4O)C3O)C2NC(C)=O)C1O (stereo not drawn) [B(E)CDAB(E)C] | -19,5±0,2 Kcal/mol | -36,6 cal/mol/K | 0.47 µM | 0.16 µM | 0.22 µM | 0.61 µM | 0,068±0,03 s-1 | 0.75 µM | 0,05 s-1 | 3,10E+05 M-1.s-1 | 0.47 µM | about three orders of magnitude more effective |  |  |  |  |
| AEGEFPHGEIFHMMRRPDPAKC-COOH (AEGEFPHGEIFHMMRRPDPAKC-OH) [Peptide C17] |  |  |  |  |  |  |  |  |  |  |  |  | poor reactivity |  |  |  |
| COC1OC(C)C(OC2OC(CO)C(O)C(O)C2O)C(OC2OC(C)C(O)C(O)C2OC2OC(C)C(O)C(O)C2OC2OC(CO)C(O)C(OC3OC(C)C(OC4OC(CO)C(O)C(O)C4O)C(OC4OC(C)C(O)C(O)C4OC4OC(C)C(O)C(O)C4OC4OC(CO)C(O)C(O)C4NC(C)=O)C3O)C2NC(C)=O)C1O (stereo not drawn) [DAB(E)CDAB(E)C] | -19,5±01,2 Kcal/mol | -41,2 cal/mol/K | 5.4 µM | 5 µM | 5 ± 1.4 µM | 5.32 µM | 0,123±0,04 s-1 | 4.47 µM | 0,29 s-1 | 5,90E+04 M-1.s-1 | 5.4 µM |  |  | only an order of magnitude higher |  |  |
| CC(=O)N[C@@H]1[C@@H](O[C@@H]2O[C@@H](C)[C@H](O[C@H]3O[C@H](CO)[C@@H](O)[C@H](O)[C@H]3O)[C@@H](O[C@@H]3O[C@@H](C)[C@H](O)[C@@H](O)[C@H]3O[C@@H]3O[C@@H](C)[C@H](O)[C@@H](O)[C@H]3O[C@@H]3O[C@H](CO)[C@@H](O)[C@H](O[C@@H]4O[C@@H](C)[C@H](O[C@H]5O[C@H](CO)[C@@H](O)[C@H](O)[C@H]5O)[C@@H](O[C@@H]5O[C@@H](C)[C@H](O)[C@@H](O)[C@H]5O[C@@H]5O[C@@H](C)[C@H](O)[C@@H](O)[C@H]5O[C@@H]5O[C@H](CO)[C@@H](O)[C@H](O[C@@H]6O[C@@H](C)[C@H](O[C@H]7O[C@H](CO)[C@@H](O)[C@H](O)[C@H]7O)[C@@H](O[C@@H]7O[C@@H](C)[C@H](O)[C@@H](O)[C@H]7O[C@@H]7O[C@@H](C)[C@H](O)[C@@H](O)[C@H]7O)[C@H]6O)[C@H]5NC(C)=O)[C@H]4O)[C@H]3NC(C)=O)[C@H]2O)[C@H](O)[C@@H](CO)O[C@H]1O [[AB(E)CD]3] | -17,3±0,8 Kcal/mol | -30,6 cal/mol/K | 1.03 µM | 0.69 µM | 0.32 µM | 0.56 µM | 0,075+0,005^(H) s-1 | 1.56 µM | 0,11 s-1 | 1,70E+05 M-1.s-1 | 1.03 µM |  |  |  |  |  |
| YLEDWIKYNNQK [Peptide B1] | -24,0 ±0,1 Kcal/mol | -54,6 cal/mol/K |  |  |  |  |  |  |  |  | 2.49 µM |  |  |  | 2.98 µM | ~3 µM |
| CC(=O)N[C@@H]1[C@@H](O[C@@H]2O[C@@H](C)[C@H](O[C@H]3O[C@H](CO)[C@@H](O)[C@H](O)[C@H]3O)[C@@H](O[C@@H]3O[C@@H](C)[C@H](O)[C@@H](O)[C@H]3O[C@@H]3O[C@@H](C)[C@H](O)[C@@H](O)[C@H]3O[C@@H]3O[C@H](CO)[C@@H](O)[C@H](O[C@@H]4O[C@@H](C)[C@H](O[C@H]5O[C@H](CO)[C@@H](O)[C@H](O)[C@H]5O)[C@@H](O[C@@H]5O[C@@H](C)[C@H](O)[C@@H](O)[C@H]5O[C@@H]5O[C@@H](C)[C@H](O)[C@@H](O)[C@H]5O)[C@H]4O)[C@H]3NC(C)=O)[C@H]2O)[C@H](O)[C@@H](CO)O[C@H]1O [[AB(E)CD]2] | -17,7±0,7 Kcal/mol | -31,7 cal/mol/K | 1.04 µM | 1.5 µM | 0.7 µM | 1 µM | 0,074±0,004 s-1 | 1.09 µM | 0,13 s-1 | 8,30E+04 M-1.s-1 | 1.04 µM |  |  |  |  |  |
| CO[C@@H]1O[C@@H](C)[C@H](O)[C@@H](O)[C@H]1O[C@@H]1O[C@H](CO)[C@@H](O)[C@H](O[C@@H]2O[C@@H](C)[C@H](O[C@H]3O[C@H](CO)[C@@H](O)[C@H](O)[C@H]3O)[C@@H](O[C@@H]3O[C@@H](C)[C@H](O)[C@@H](O)[C@H]3O)[C@H]2O)[C@H]1NC(C)=O [B(E)CDA] | -14,2±0,1 Kcal/mol | -22,7 cal/mol/K | 3.35 µM | 3.5 µM | 2.5 µM | 4.1 µM |  |  | 2,4 s-1 | 7,00E+05 M-1.s-1 | 3.35 µM |  |  |  |  |  |
| CO[C@@H]1O[C@@H](C)[C@H](O)[C@@H](O)[C@H]1O[C@@H]1O[C@@H](C)[C@H](O)[C@@H](O)[C@H]1O[C@@H]1O[C@H](CO)[C@@H](O)[C@H](O[C@@H]2O[C@@H](C)[C@H](O[C@H]3O[C@H](CO)[C@@H](O)[C@H](O)[C@H]3O)[C@@H](O)[C@H]2O)[C@H]1NC(C)=O [ECDAB] | -10,8±0,1 Kcal/mol | -19,6 cal/mol/K | 230 ± 2 µM | 300 µM | 354 ± 40 µM |  |  |  |  |  | 230 ± 2 µM |  |  |  |  |  |
